Results: the NIST ThermoML archive (doi:10.1021/je201211f)
± gives the expanded uncertainty stated by the source.

Assays:
[1] = xn = mol fraction of the nth substance listed; settings: 101 kPa, Liquid; for mass density: Vibrating tube method; for viscosity: Capillary tube (Ostwald / Ubbelohde) method
[2] = refractive index (Na D-line) (dimensionless); xn = mol fraction of the nth substance listed; settings: 298.15 K, 101 kPa, Liquid
[3] = refractive index (Na D-line) (dimensionless); settings: 298.15 K; 101.33 kPa; Liquid; Standard Abbe refractometry
[4] = 298.15 K, 101.33 kPa, Liquid

Cc1cccc(C)c1 [1,3-dimethylbenzene] + CC(=O)O
[1]
Settings	mass density, 293.15 K [kg/m3]	mass density, 298.15 K [kg/m3]	mass density, 303.15 K [kg/m3]	viscosity, 298.15 K [mPa·s]
x2 = 0.0777	869.99 ± 0.33	865.62 ± 0.33	861.24 ± 0.33	–
x2 = 0.0962	–	–	–	0.5885 ± 0.0076
x2 = 0.1623	876.98 ± 0.33	872.54 ± 0.32	–	–
x2 = 0.1625	–	–	–	0.5929 ± 0.0076
x2 = 0.2143	881.73 ± 0.32	877.22 ± 0.32	872.69 ± 0.31	–
x2 = 0.2833	888.6 ± 0.32	884 ± 0.31	879.39 ± 0.31	–
x2 = 0.3223	–	–	–	0.6061 ± 0.0075
x2 = 0.35	895.97 ± 0.31	891.29 ± 0.31	886.59 ± 0.31	–
x2 = 0.3797	–	–	–	0.6144 ± 0.0075
x2 = 0.3896	900.67 ± 0.31	895.94 ± 0.31	891.18 ± 0.3	–
x2 = 0.4773	–	–	–	0.6308 ± 0.0075
x2 = 0.4801	912.73 ± 0.32	907.88 ± 0.3	903 ± 0.29	–
x2 = 0.557	–	–	–	0.6504 ± 0.0075
x2 = 0.5621	925.38 ± 0.32	920.41 ± 0.3	915.43 ± 0.29	–
x2 = 0.6204	935.7 ± 0.32	930.66 ± 0.3	925.59 ± 0.29	–
x2 = 0.6405	–	–	–	0.6798 ± 0.0076
x2 = 0.7182	–	–	–	0.7206 ± 0.0077
x2 = 0.7214	956.29 ± 0.35	951.08 ± 0.3	945.86 ± 0.26	–
x2 = 0.7955	–	–	–	0.7754 ± 0.0079
x2 = 0.8155	980.67 ± 0.34	975.31 ± 0.3	969.94 ± 0.27	–
x2 = 0.8721	–	–	–	0.8578 ± 0.0082
x2 = 0.8758	999.34 ± 0.36	993.89 ± 0.31	988.44 ± 0.26	–
x2 = 0.9649	–	–	–	1.023 ± 0.0089
x2 = 0.9672	1034.28 ± 0.31	1028.66 ± 0.31	1023.08 ± 0.31	–

[2]
Settings	refractive index
x2 = 0.0962	1.4877 ± 0.0013
x2 = 0.1625	1.4829 ± 0.0013
x2 = 0.3223	1.4682 ± 0.0013
x2 = 0.3797	1.4616 ± 0.0013
x2 = 0.4773	1.4523 ± 0.0013
x2 = 0.557	1.4424 ± 0.0013
x2 = 0.6405	1.4319 ± 0.0013
x2 = 0.7182	1.421 ± 0.0012
x2 = 0.7955	1.4066 ± 0.0012
x2 = 0.8721	1.3931 ± 0.0012
x2 = 0.9649	1.3773 ± 0.0012

Cc1ccc(C)cc1 [1,4-dimethylbenzene]
Settings	refractive index
[3]	1.4929 ± 0.0008

[4]
Settings	mass density [kg/m3]	viscosity [mPa·s]
Capillary tube (Ostwald / Ubbelohde) method	–	0.609 ± 0.008
Vibrating tube method	856.68 ± 0.24	–

Cc1ccc(C)cc1 [1,4-dimethylbenzene] + CC(=O)O
[1]
Settings	mass density, 293.15 K [kg/m3]	mass density, 298.15 K [kg/m3]	mass density, 303.15 K [kg/m3]	viscosity, 298.15 K [mPa·s]
x2 = 0.0415	864.09 ± 0.33	859.71 ± 0.34	855.31 ± 0.34	–
x2 = 0.0863	–	–	–	0.6099 ± 0.0077
x2 = 0.1166	870.08 ± 0.33	865.62 ± 0.33	861.15 ± 0.33	–
x2 = 0.157	873.55 ± 0.32	869.05 ± 0.32	864.53 ± 0.32	–
x2 = 0.1651	874.28 ± 0.32	869.76 ± 0.32	865.24 ± 0.32	–
x2 = 0.173	–	–	–	0.6095 ± 0.0077
x2 = 0.2386	–	–	–	0.6117 ± 0.0076
x2 = 0.2466	882 ± 0.32	877.4 ± 0.32	872.79 ± 0.32	–
x2 = 0.2659	884.01 ± 0.32	879.38 ± 0.32	874.76 ± 0.31	–
x2 = 0.3096	–	–	–	0.6159 ± 0.0076
x2 = 0.3246	890.49 ± 0.32	885.78 ± 0.31	881.08 ± 0.31	–
x2 = 0.3987	–	–	–	0.625 ± 0.0075
x2 = 0.4234	902.44 ± 0.31	897.64 ± 0.31	892.81 ± 0.3	–
x2 = 0.4717	909.04 ± 0.31	904.17 ± 0.31	899.29 ± 0.3	–
x2 = 0.4897	–	–	–	0.6398 ± 0.0075
x2 = 0.5505	921.33 ± 0.32	916.35 ± 0.3	911.38 ± 0.29	–
x2 = 0.5621	–	–	–	0.6575 ± 0.0076
x2 = 0.6323	–	–	–	0.68 ± 0.0076
x2 = 0.6435	938.19 ± 0.33	933.07 ± 0.3	927.95 ± 0.27	–
x2 = 0.7212	–	–	–	0.7243 ± 0.0077
x2 = 0.7299	957.01 ± 0.34	951.78 ± 0.3	946.53 ± 0.27	–
x2 = 0.7965	–	–	–	0.7753 ± 0.0079
x2 = 0.8099	977.97 ± 0.35	972.61 ± 0.3	967.24 ± 0.27	–
x2 = 0.8784	–	–	–	0.8675 ± 0.0082
x2 = 0.8851	1001.76 ± 0.36	996.29 ± 0.31	990.81 ± 0.26	–
x2 = 0.955	–	–	–	1.003 ± 0.0088
x2 = 0.9601	1030.99 ± 0.31	1025.4 ± 0.31	1019.76 ± 0.31	–

[2]
Settings	refractive index
x2 = 0.0863	1.4874 ± 0.0007
x2 = 0.173	1.4805 ± 0.0007
x2 = 0.2386	1.4748 ± 0.0007
x2 = 0.3096	1.4682 ± 0.0007
x2 = 0.3987	1.4598 ± 0.0007
x2 = 0.4897	1.4498 ± 0.0007
x2 = 0.5621	1.4414 ± 0.0007
x2 = 0.6323	1.4325 ± 0.0007
x2 = 0.7212	1.4202 ± 0.0007
x2 = 0.7965	1.4084 ± 0.0007
x2 = 0.8784	1.3939 ± 0.0007
x2 = 0.955	1.3791 ± 0.0007
